# Measured values published in the supplement of paper PMC10307832.
# Legend:
# Test in all cases: relative viability (nuclei count vs DMSO), 5 days (fraction); higher = more cells survive
# [1] = tested on: EMC-BAC-2
# Summary of the method: (§1)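 Lung cancer cell lines, seeded in 1536-well plates, were treated the following day by pin tool with a single drug or with five library-drug doses (not always all listed) in √10 steps on top of a fixed anchor-drug dose. Cells were fixed and nuclei stained in one step after 5 days, and nuclei were counted. Relative viability is the nuclei count for treated wells divided by that for vehicle wells, reported as medians of duplicate plates.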
# [2] = tested on: NCI-H358
# Summary of the method: as §1
# [3] = tested on: CAL-12T
# Summary of the method: as §1
# [4] = tested on: NCI-H1975
# Summary of the method: as §1
# [5] = tested on: NCI-H3122
# Summary of the method: as §1
# [6] = tested on: NCI-H1993
# Summary of the method: as §1
# [7] = tested on: HOP-62
# Summary of the method: as §1
# [8] = tested on: NCI-H1666
# Summary of the method: as §1
# [9] = tested on: HCC-78
# Summary of the method: as §1
# [10] = tested on: NCI-H322M
# Summary of the method: as §1
# [11] = tested on: UMC-11
# Summary of the method: as §1
# [12] = tested on: LXF-289
# Summary of the method: as §1
# [13] = tested on: EPLC-272H
# Summary of the method: as §1
# [14] = tested on: NCI-H2126
# Summary of the method: as §1
# [15] = tested on: NCI-H2085
# Summary of the method: as §1
# [16] = tested on: COR-L 105
# Summary of the method: as §1
# [17] = tested on: NCI-H1755
# Summary of the method: as §1
# [18] = tested on: ChaGo-K-1
# Summary of the method: as §1
# [19] = tested on: ABC-1
# Summary of the method: as §1
# [20] = tested on: NCI-H2023
# Summary of the method: as §1
# [21] = tested on: NCI-H441
# Summary of the method: as §1
# [22] = tested on: NCI-H1915
# Summary of the method: as §1
# [23] = tested on: HCC-15
# Summary of the method: as §1
smiles,measurement,setting,value
C[C@@H]1CN(CC(=O)Nc2ccc3c(c2)Cc2cccc(-c4cc(=O)cc(N5CCOCC5)o4)c2S3)C[C@H](C)O1 + C[C@@H](Oc1cc(-c2cnn(C3CCNCC3)c2)cnc1N)c1c(Cl)ccc(F)c1Cl [Crizotinib] (partner 1 µM),relative viability,[1]; first compound 0.04 µM,0.57
same,relative viability,[1]; first compound 0.1265 µM,0.761
same,relative viability,[1]; first compound 0.4 µM,0.75
same,relative viability,[1]; first compound 4 µM,0.819
same,relative viability,[2]; first compound 0.04 µM,0.456
same,relative viability,[2]; first compound 0.1265 µM,0.465
same,relative viability,[2]; first compound 0.4 µM,0.718
same,relative viability,[2]; first compound 4 µM,0.365
same,relative viability,[3]; first compound 0.04 µM,0.644
same,relative viability,[3]; first compound 0.1265 µM,0.526
same,relative viability,[3]; first compound 0.4 µM,0.693
same,relative viability,[3]; first compound 4 µM,0.297
same,relative viability,[4]; first compound 0.04 µM,0.947
same,relative viability,[4]; first compound 0.1265 µM,0.905
same,relative viability,[4]; first compound 0.4 µM,0.937
same,relative viability,[4]; first compound 4 µM,0.781
same,relative viability,[5]; first compound 0.04 µM,0.349
same,relative viability,[5]; first compound 0.1265 µM,0.324
same,relative viability,[5]; first compound 0.4 µM,0.264
same,relative viability,[5]; first compound 4 µM,0.282
same,relative viability,[6]; first compound 0.04 µM,0.876
same,relative viability,[6]; first compound 0.1265 µM,0.846
same,relative viability,[6]; first compound 0.4 µM,0.661
same,relative viability,[6]; first compound 4 µM,0.85
same,relative viability,[7]; first compound 0.04 µM,0.876
same,relative viability,[7]; first compound 0.1265 µM,1
same,relative viability,[7]; first compound 0.4 µM,0.884
same,relative viability,[7]; first compound 4 µM,0.941
same,relative viability,[8]; first compound 0.04 µM,0.928
same,relative viability,[8]; first compound 0.1265 µM,1.05
same,relative viability,[8]; first compound 0.4 µM,1.11
same,relative viability,[8]; first compound 4 µM,0.661
same,relative viability,[9]; first compound 0.04 µM,0.344
same,relative viability,[9]; first compound 0.1265 µM,0.349
same,relative viability,[9]; first compound 0.4 µM,0.308
same,relative viability,[9]; first compound 4 µM,0.348
same,relative viability,[10]; first compound 0.04 µM,0.599
same,relative viability,[10]; first compound 0.1265 µM,0.863
same,relative viability,[10]; first compound 0.4 µM,1.08
same,relative viability,[10]; first compound 4 µM,0.959
same,relative viability,[11]; first compound 0.04 µM,0.747
same,relative viability,[11]; first compound 0.1265 µM,0.644
same,relative viability,[11]; first compound 0.4 µM,0.613
same,relative viability,[11]; first compound 4 µM,0.385
same,relative viability,[12]; first compound 0.04 µM,0.777
same,relative viability,[12]; first compound 0.1265 µM,0.877
same,relative viability,[12]; first compound 0.4 µM,0.814
same,relative viability,[12]; first compound 4 µM,0.799
same,relative viability,[13]; first compound 0.04 µM,1.27
same,relative viability,[13]; first compound 0.1265 µM,0.971
same,relative viability,[13]; first compound 0.4 µM,0.997
same,relative viability,[13]; first compound 4 µM,0.83
same,relative viability,[14]; first compound 0.04 µM,1.05
same,relative viability,[14]; first compound 0.1265 µM,1.02
same,relative viability,[14]; first compound 0.4 µM,1.05
same,relative viability,[14]; first compound 4 µM,1.02
same,relative viability,[15]; first compound 0.04 µM,0.922
same,relative viability,[15]; first compound 0.1265 µM,0.88
same,relative viability,[15]; first compound 0.4 µM,0.773
same,relative viability,[15]; first compound 4 µM,0.665
same,relative viability,[16]; first compound 0.04 µM,0.766
same,relative viability,[16]; first compound 0.1265 µM,0.862
same,relative viability,[16]; first compound 0.4 µM,0.881
same,relative viability,[16]; first compound 4 µM,0.435
same,relative viability,[17]; first compound 0.04 µM,0.92
same,relative viability,[17]; first compound 0.1265 µM,0.86
same,relative viability,[17]; first compound 0.4 µM,0.816
same,relative viability,[17]; first compound 4 µM,0.792
same,relative viability,[18]; first compound 0.1265 µM,1.09
same,relative viability,[18]; first compound 0.4 µM,1.21
same,relative viability,[18]; first compound 4 µM,1.13
same,relative viability,[19]; first compound 0.1265 µM,1.17
same,relative viability,[19]; first compound 0.4 µM,1.15
same,relative viability,[19]; first compound 4 µM,0.723
same,relative viability,[20]; first compound 0.04 µM,0.655
same,relative viability,[20]; first compound 0.1265 µM,0.634
same,relative viability,[20]; first compound 0.4 µM,0.664
same,relative viability,[20]; first compound 4 µM,0.516
same,relative viability,[21]; first compound 0.04 µM,0.944
same,relative viability,[21]; first compound 0.1265 µM,0.788
same,relative viability,[21]; first compound 0.4 µM,0.707
same,relative viability,[21]; first compound 4 µM,0.587
same,relative viability,[22]; first compound 0.04 µM,0.9
same,relative viability,[22]; first compound 0.1265 µM,0.886
same,relative viability,[22]; first compound 0.4 µM,0.95
same,relative viability,[22]; first compound 4 µM,0.853
same,relative viability,[23]; first compound 0.04 µM,0.8
same,relative viability,[23]; first compound 0.1265 µM,0.75
same,relative viability,[23]; first compound 0.4 µM,0.831
same,relative viability,[23]; first compound 4 µM,0.734
